Experimental data from article PMC7970121, “Combination With Tomatidine Improves the Potency of Posaconazole Against Trypanosoma cruzi” (Frontiers in Cellular and Infection Microbiology, 2021).
Entries after “also recorded” stand apart in the source; their conditions may differ. Counter-ions that a name gives are not always drawn. Like-named read-outs stand apart in the source and are kept apart here.

How the values were obtained:
[1] = system: Trypanosoma cruzi intracellular amastigotes (Tulahuen strain in rat L6 myoblasts); assay: Activity on T. cruzi intracellular amastigotes in L6 cells (LacZ/CPRG, 96 h); assay type: cell-based; conditions: for EC50: read-out: Amastigotes (mean ± SD) EC50; for EC90: read-out: Amastigotes (mean ± SD) EC90
Experimental: (§1) L6 cells derived from rat skeletal myoblast (ATCC CRL-1458) were used as host cells for T. cruzi using trypomastigotes of Tulahuen C2C4 strain (DTU VI) expressing the β-galactosidase gene (LacZ) ([Buckner et al., 1996]). The cultures were sustained in RPMI-1640 supplemented with 10% inactivated fetal bovine serum (FBS) and […] at 5% CO2 and 37°C. Epimastigote T. cruzi (STIB 980 strain, DTU TcI) were cultivated at 28°C in liver infusion tryptose (LIT) medium supplemented with hemin (2 μg/ml) and 10% FBS and were used in log phase of growth. Bloodstream trypomastigotes (Y strain, DTU II) were isolated from Swiss Webster mice infected at the peak of parasitemia (≥ 2.5 × 10^6/ml), as reported ([Meirelles et al., 1986]).
Rat skeletal myoblasts (L6 cell lines) were seeded in 96-well plates (10^4 cells/well) in 100 μl RPMI 1640 medium supplemented with 10% fetal bovine serum (FBS) and 2 mM L-glutamine. The medium was removed after 24 h incubation and replaced by 100 μl of fresh medium containing 10^5 LacZ trypomastigotes (Tulahuen DTU VI). After 48 h, the medium was again removed and replaced with or without a serial of compound concentrations (eleven three-fold dilution steps). After 96 h of compound exposure, CPRG/Nonidet (50 μl) substrate was added and the reading performed after 2–6 h at 540 nm in Versamax microplate reader (Molecular Devices Cooperation, USA). Growth was expressed as percentage of the values of solvent-treated controls. The graphics program Softmax Pro (Molecular Devices) was used to construct dose–response curves and calculate EC50 values. Bz was used as reference drug.

[2] = system: Trypanosoma cruzi epimastigotes (STIB 980 strain); assay: Activity on T. cruzi epimastigotes (resazurin, 72 h); assay type: cell-based
Experimental: as §1
Epimastigotes (10^7 parasites/ml) were incubated for 72 h at 28°C with serially diluted compound concentrations (eleven 1:3 dilutions) in supplemented LIT medium. Parasite viability and motility were evaluated by direct observation by light microscopy and fluorometric assays performed with resazurin (12.5 mg resazurin dissolved in 100 ml distilled water). After 2–4 h of incubation with resazurin solution, plates were read in Spectramax Gemini XS microplate fluorometer (Molecular Devices Cooperation, USA) using wavelengths of 536 nm (excitation) and 588 nm (emission) ([Räz et al., 1997]). Growth was expressed as percentage of the values of solvent-treated controls. The graphics program Softmax Pro (Molecular Devices) was used to construct dose–response curves and calculate EC50 (half maximal inhibitory concentration) values. Bz was used as reference drug.

[3] = Cytotoxicity against L6 cells (resazurin, 72 h); assay type: cell-based, rat
Experimental: Rat skeletal myoblasts (L6 cell lines) were seeded in 96-well plates (4 × 10^4 cells/well) in 100 μl RPMI 1640 medium supplemented with 10% fetal bovine serum (FBS) and 2 mM L-glutamine. After 24 h incubation the medium was replaced with 100 μl of fresh medium with or without a serial dilution of compound concentrations (eleven three-fold dilution steps). After 72 h of compound exposure, fluorescent dye resazurin (10 μl, 12.5 mg resazurin dissolved in 100 ml water) was added for 2 h and the readings performed at Spectramax Gemini XS microplate fluorometer (Molecular Devices Cooperation, USA), with excitation wavelength of 536 nm and an emission wavelength of 588 nm. Growth was expressed as percentage of the values of solvent-treated controls. The graphics program Softmax Pro (Molecular Devices) was used to construct dose–response curves and calculate EC50 values. Podophyllotoxin (a microtubule destabilizing agent) was used as positive control.

[4] = system: T. cruzi (Y strain); assay: Mouse model of acute T. cruzi infection: parasitemia and mortality; assay type: in vivo, Trypanosoma cruzi
Experimental: Male Swiss Webster mice (18–23 g) were obtained from the Instituto de Ciência e Tecnologia em Biomodelos (ICTB/Fiocruz) (Rio de Janeiro, Rio de Janeiro, Brazil). Five mice were housed per cage, kept in a conventional room at 20–24°C under 12 h/12 h light/dark cycle. Sterilized water and chow were provided ad libitum. The animals were acclimated for 7 days before being used in the different assays. All procedures were done following Biosafety Guidelines in compliance with the Fiocruz and all animal procedure approved by the Committee of Ethics for the Use of Animals (CEUA L-38/17).
Male mice (n = 5 per group) were infected i.p. with 10^4 bloodstream trypomastigotes of T. cruzi (Y strain). Only mice with positive parasitemia at day 5 post infection (dpi) were included in the studies. […] Uninfected and T. cruzi-infected mice treated only with vehicle (aqueous solution of 0.5% carboxymethylcellulose) were age-matched and housed under identical conditions and used as controls ([Simões-Silva et al., 2017]). All compound formulations were freshly prepared before every administration.
All animals were individually checked for circulating blood parasitemia by counting the number of parasites in 5 µl of blood taken from the tail vein and investigated under the microscope ([Brener, 1962]). Parasitemia was checked till 30 dpi, while mortality was checked daily up to 30 days after the administration of the last dose. Mortality was given as percentage of cumulative mortality (CM) ([Simões-Silva et al., 2017]).

[5] = Toxicity in female mice after p.o. administration; assay type: in vivo; conditions: up to 200 mpk (data not shown)
[6] = system: T. cruzi epimastigote cultures; design: method as in Chataing et al., 1998; conditions: after four days of incubation; ref Chataing et al., 1998; read-out: Concentration inhibiting growth of epimastigote cultures to 50%; cited from earlier work
[7] = EC50 on mammalian L6 cells versus EC50 on intracellular amastigotes
[8] = Trypanosoma cruzi, TULAHUEN, L6, 96 h, Tulahuen strain in rat L6 myoblasts, 96 h, n = 3
[9] = Trypanosoma cruzi, Tulahuen strain in rat L6 myoblasts, 96 h, n = 3
[10] = STIB980, STIB 980 strain, 72 h, n = 3, read-out: Epimastigotes (mean ± SD) EC50
[11] = STIB980, STIB 980 strain, 72 h, n = 3, read-out: Epimastigotes (mean ± SD) EC90
[12] = rat L6 myoblasts, 72 h, n = 3, read-out: L6 cells (mean ± SD) EC50
[13] = Tulahuen strain in rat L6 myoblasts, 96 h, n = 3
[14] = L6 rat skeletal myoblast cells, rat L6 myoblasts, 72 h, n = 3, read-out: L6 cells (mean ± SD) EC50
[15] = Trypanosoma cruzi, TULAHUEN, L6, 96 h
[16] = TH alone, all tested doses (up to 5 mpk) p.o., 10 days, mice

Structure (SMILES)	SI (Selectivity Index) [1, 7]	EC50 [1, 8] [µM]	EC90 [1, 9] [µM]	EC50 [2, 10] [µM]	EC90 [2, 11] [µM]	EC50 at 72 h ([3]; rat) [µM]	further results
NC1CN2CCC1CC2 (stereo not shown) [3-Amino quinuclidine dihydrochloride, 3-Amino quinuclidine]	>1.8	268 ± 10	485 ± 28	> 502	> 502	> 502	
OCC1C(O)C(O)C(O)CN1CCCCCOCC12CC3CC(CC(C3)C1)C2 (stereo not shown) [AMP-Deoxy nojirimycin, AMP-Deoxynojirimycin]	1.2	34.8 ± 15.1	66.6 ± 15.4	158 ± 5.9	237 ± 2	40.4 ± 10.9	
CN(C)CCC=C1c2ccccc2CCc2ccccc21 [Amitriptyline (hydrochloride), Amitriptyline]	1.4	12.2 ± 3.6	20.9 ± 3	59.9 ± 5.4	96.8 ± 3.3		EC50 at 72 h [3, 12]: 17.2 ± 1.2 µM
O=C(Cn1ccnc1[N+](=O)[O-])NCc1ccccc1 [Benznidazole]	>172	2.2	6.61 ± 2.5	13.9 ± 2.2	101 ± 18	> 384	EC50 [1, 13]: 2.22 ± 0.98 µM
CC(C)(Oc1ccc(CCNC(=O)c2ccc(Cl)cc2)cc1)C(=O)O [Bezafibrate]		132 ± 38.6	226 ± 65	> 276	> 276		SI (Selectivity Index) [1]: >2.1; EC50 at 72 h [3, 14]: > 276 µM
S=C(S)OC1CC2CC1C1CCCC21 (stereo not shown) [D609 (potassium salt), D609]		99.4 ± 17.6	198 ± 32	154 ± 32	> 375		SI (Selectivity Index) [1]: 2.5; EC50 at 72 h [3, 14]: 247 ± 20 µM
CCCCCCCCc1ccc(CCC(N)(CO)COP(=O)(O)O)cc1 (stereo not shown) [FTY720 Phosphate, FTY720-P]	1.4	93.8 ± 3.3	168 ± 25	> 258	> 258	127 ± 22	
CCCCCCCCc1ccc(CCC(N)(CO)CO)cc1 [FTY720]	0.5	≤ 1	1.84 ± 1.3	7.55 ± 0.4	11.6 ± 0.3	0.39 ± 0.1	EC50 [1, 13]: 0.81 ± 0.5 µM
CCCCC(C)C(OC(=O)CC(CC(=O)O)C(=O)O)C(CC(C)CC(O)CCCCC(O)CC(O)C(C)N)OC(=O)CC(CC(=O)O)C(=O)O (stereo not shown) [Fumonisin B1]	>1.8						EC50 [1, 15]: 50.8 ± 5.7 µM; EC90 [1, 15]: 84 ± 9.1 µM; EC50 ([2]; STIB980, 72 h, read-out: Epimastigotes (mean ± SD) EC50): > 92 µM; EC90 ([2]; STIB980, 72 h, read-out: Epimastigotes (mean ± SD) EC90): > 92 µM; EC50 at 72 h [3, 12]: > 92 µM
O=C(/C=C/c1ccc(/C=C/C(=O)Nc2ccc(C3=NCCN3)cc2)cc1)Nc1ccc(C2=NCCN2)cc1 [GW4869 (hydrochloride hydrate), GW4869]	>1.7	106 ± 44	> 173	> 173	> 173		EC50 at 72 h [3, 12]: > 173 µM
CCCCCCC(=O)CCCCCC/C=C/C[C@@H](O)[C@H](O)[C@@](N)(CO)C(=O)O [Myriocin]	>1.9	130 ± 34	231 ± 25	> 249	> 249		EC50 at 72 h [3, 12]: > 249 µM
CCCCCCCCCC(=O)NC(CN1CCOCC1)C(O)c1ccccc1 (stereo not shown) [PDMP (hydrochloride), PDMP]		12.5 ± 2.9	24.6 ± 9	47.9 ± 9.4	88.7 ± 18		SI (Selectivity Index) [1]: 2.7; EC50 at 72 h [3, 14]: 33.5 ± 3.1 µM
CC[C@@H]([C@H](C)O)n1ncn(-c2ccc(N3CCN(c4ccc(OC[C@@H]5CO[C@@](Cn6cncn6)(c6ccc(F)cc6F)C5)cc4)CC3)cc2)c1=O [Posaconazole]	>700	0.002 ± 0.001	0.016 ± 0.005	> 14.2	> 14.2	> 1.42	Decrease of the parasitemia peak ([4]; Posa 1.25 mpk (suboptimal dose) p.o., 10 days (5-14 dpi), mice): about 80%; Animal survival ([4]; Posa 1.25 mpk p.o., 10 days (5-14 dpi)): 20%; Survival of mice ([4]; Posa 10 mpk p.o., 10 days (5-14 dpi)): 40%; Effect on parasitemia on the peak (8 dpi) ([4]; Posa 10 mpk p.o., 10 days (5-14 dpi), mice): suppressed parasitemia on the peak; Signs of toxicity [5]: did not show any signs of toxicity
C1CN2CCC1CC2 [Quinuclidine hydrochloride, Quinuclidine]		478 ± 174	> 677	> 677	> 677		SI (Selectivity Index) [1]: >1.4; EC50 at 72 h [3, 14]: > 677 µM
C=CCN(C)CCCCCCOc1ccc(C(=O)c2ccc(Br)cc2)c(F)c1 [Ro48-8071]	12		2.5 ± 1.9	11.6 ± 6.1	29.4 ± 16.2	5.7 ± 2.4	EC50 ([1]; Tulahuen strain in rat L6 myoblasts, 96 h, n = 3, listed as RO48-8071): ≤ 1 µM; EC50 [1, 13]: 0.47 ± 0.09 µM
Cc1cc2ncc(NC(=O)Nc3ccc(F)cc3F)c(-c3ccccc3Cl)c2cc1C [TMP-153]	1.4		3.9 ± 2.1	106 ± 27	> 228	0.12 ± 0.03	
C[C@H]1CC[C@]2(NC1)O[C@H]1C[C@H]3[C@@H]4CC[C@H]5C[C@@H](O)CC[C@]5(C)[C@H]4CC[C@]3(C)[C@H]1[C@@H]2C [Tomatidine (hydrochloride), Tomatidine]	115	≤ 1	1.8 ± 0.2	192 ± 8.1	> 221		EC50 [1, 13]: 0.78 ± 0.2 µM; Maximum reduction in blood parasitemia on the peak [4, 16]: ≤ 28%; Protection against mortality induced by the infection [4, 16]: all animals died by 20 dpi; Antiparasitic activity in vivo ([4]; TH alone, doses 0.5 to 5 mg/kg, acute mouse model, listed as TH): lack of antiparasitic activity; also recorded: did not present antiparasitic activity; EC50 at 72 h [3, 12]: 89.5 ± 26.7 µM; Signs of toxicity [5]: did not show any signs of toxicity; EC50 [6]: 5.7 µM
